# Columns and labels:
# [1] = system: E. cloacae; test: MIC of carbapenem by Etest (Example 2); type: cell-based, Enterobacter cloacae
# Method: All strains had previously been characterized for their β-lactamase content at the molecular level. Minimum inhibitory concentration of carbapenem were determined using the Etest® (AB bioMérieux, Solna, Sweden) and results were recorded according to US guidelines (CLSI), as updated in 2011.
# [2] = system: E. coli; test: MIC by Etest on Mueller-Hinton agar (Example 1); type: cell-based, Escherichia coli; settings: for MIC: Escherichia coli
# Method: Prior to performing the method of the invention, susceptibility testings were performed by determining Minimum Inhibitory Concentration (MIC) values by the Etest® (AB bioMérieux; Solna, Sweden) on Mueller-Hinton agar plates at 37° C. and results of susceptibility testing were recorded according to the Clinical and Laboratory Standards Institute (CLSI) guidelines as modified in June 2010 (18). The breakpoints for imipenem are S≦1 μg/ml (susceptibility) and R≧4 μg/ml (resistant). As for those for ertapenem, they are S≦0.25 μg/ml and R≧1 μg/ml (see Tables 1 and 2).
# [3] = system: P. stutzeri; test: Susceptibility testing by Etest on Mueller-Hinton agar (Example 3); type: cell-based; settings: Stutzerimonas stutzeri
# Method: (§1) Susceptibility testing was performed using the Etest® (bioMérieux; La Balmes-les-Grottes, France) on Mueller-Hinton agar plates (Becton Dickinson, Le Pont de Chaix, France) at 37° C. and results were recorded according to US guidelines (CLSI), as updated in 2012. The breakpoints for imipenem, meropenem and doripenem are as follows; susceptibility (S)≦2, and resistance (R)≧8 μg/ml.
# [4] = system: P. putida; test: as above; type: cell-based; settings: Pseudomonas putida
# Method: as §1
# [5] = system: P. fluorescens; test: as above; type: cell-based; settings: Pseudomonas fluorescens
# Method: as §1
# [6] = ESBLs, E. cloacae CTX-M-15, n=3
# [7] = E. coli Ec13 SYD (23), plasmid mediated cephalosporinase CMY-2
# [8] = E. coli VMC (24), plasmid mediated cephalosporinase CMY-10
# [9] = E. coli 271 AUS (12), NDM-1 + CTX-M-15 + TEM-1
# [10] = E. coli 5649 GEN, NDM-1 + OXA-1 + CMY-30 + TEM-1
# [11] = E. coli ALL, NDM-1 + OXA-1 + OXA-2 + CTX-M-15 + TEM-1
# [12] = E. coli MAD (14), VIM-1 + CTX-M-3
# [13] = E. coli RIC, NDM-1 + OXA-1 + OXA-10 + CMY-16
Compound,"MICs range ([1]; E. cloacae GES-5, n=1) [mg/L]","MICs range ([1]; E. cloacae IMP-8, n=2)","MICs range ([1]; E. cloacae KPC-2, n=7) [mg/L]","MICs range ([1]; E. cloacae NDM-1, n=1) [mg/L]","MICs range ([1]; E. cloacae NMC-A, n=1) [mg/L]","MICs range ([1]; E. cloacae OXA-48, n=3) [mg/L]","MICs range [1, 6] [mg/L]","MICs range ([1]; ESBLs, E. cloacae VEB-1, n=1) [mg/L]","MICs [2, 7] [µg/mL]","MICs ([2]; E. coli J53 (29), wild-type) [µg/mL]","MICs [2, 8] [µg/mL]","MIC [2, 9] [µg/mL]","MIC [2, 10] [µg/mL]","MIC ([2]; E. coli (18), ESBL CTX-M-14) [µg/mL]","MIC ([2]; E. coli (20), ESBL VEB-1) [µg/mL]","MIC [2, 11] [µg/mL]","MIC ([2]; E. coli BOU, OXA-48 + CTX-M-15) [µg/mL]","MIC ([2]; E. coli COL (2), KPC-2) [µg/mL]","MIC ([2]; E. coli DIH, VIM-19) [µg/mL]","MIC ([2]; E. coli DIN, KPC) [µg/mL]",other results
"C[C@@H](O)[C@H]1C(=O)N2C(C(=O)O)=C(S[C@@H]3CN[C@H](C(=O)Nc4cccc(C(=O)O)c4)C3)[C@H](C)[C@H]12 [ERT, ertapenem]",>32,0.5 to 1^ mg/L,1.5 to 32,16,>32,0.5 to 16,0.12,0.12,0.06,0.06,0.06,8,32,0.06,0.06,8,1.5,0.5,2,> 32,"MICs range ([1]; E. cloacae IMP-1, n=12): >32 mg/L; MIC ([2]; E. coli FOR, ESBL CTX-M-15): 0.06 µg/mL; MIC ([2]; E. coli HAN (7), OXA-48): 1.5 µg/mL; MIC [2, 12]: 0.5 µg/mL; MIC ([2]; E. coli MAD, IMP-1): 3 µg/mL; MIC ([2]; E. coli PSP, KPC-2): 2 µg/mL; MIC [2, 13]: 8 µg/mL"
"C[C@@H](O)[C@H]1C(=O)N2C(C(=O)O)=C(SCCN=CN)C[C@H]12 [IMP, imipenem]",>32,0.75 to 1.5 mg/L,1 to 24,2,16,0.5 to 1,0.12,0.12,0.06,0.06,0.06,6,6,0.06,0.06,4,1,4,1,16,"MICs range ([1]; Plasmid mediated AmpC or chromosomal AmpC + decreased membrane permeability, E. cloacae Overexpressed cephalosporinase, n=7): 0.12 to 16^ mg/L; MIC ([3]; P. stutzeri 13, DIM-1): > 0.032 µg/mL; MIC ([3]; P. stutzeri P511503100, VIM-2): > 0.032 µg/mL; MIC ([3]; P. stutzeri PB207, IMP-1): 0.002 µg/mL; MIC ([4]; CIP55, P. putida CIP 55-5, wild type, none): 0.0005 µg/mL; MIC ([4]; P. putida 9335, VIM-2): > 0.032 µg/mL; MIC ([4]; P. putida NTU 91/99, VIM-2): > 0.032 µg/mL; MIC ([4]; P. putida NTU 92/99, IMP-1): 0.001 µg/mL; MIC ([5]; P. fluorescens COU, VIM-2): > 0.032 µg/mL; MIC ([5]; P. fluorescens, BIC-1): > 0.032 µg/mL; MIC ([2]; E. coli FOR, ESBL CTX-M-15): 0.06 µg/mL; MIC ([2]; E. coli HAN (7), OXA-48): 0.5 µg/mL; MIC [2, 12]: 1.5 µg/mL; MIC ([2]; E. coli MAD, IMP-1): 0.5 µg/mL; MIC ([2]; E. coli PSP, KPC-2): 1 µg/mL; MIC [2, 13]: 4 µg/mL"

# From US9340819B2, “Method for detecting the presence of carbapenemase-producing bacteria in a sample” (priority 2011, dated 2016)
